From ChEMBL document CHEMBL1134111, “Nucleoside analogues as highly potent and selective inhibitors of herpes simplex virus thymidine kinase” (Bioorg Med Chem Lett, 2001) come the findings set out here.

Each structure is given as a SMILES string.

The target in assay [1] is T1, Thymidine kinase (Human herpesvirus 2, UniProt Q6L709).
T1 sequence (Q6L709 whole entry): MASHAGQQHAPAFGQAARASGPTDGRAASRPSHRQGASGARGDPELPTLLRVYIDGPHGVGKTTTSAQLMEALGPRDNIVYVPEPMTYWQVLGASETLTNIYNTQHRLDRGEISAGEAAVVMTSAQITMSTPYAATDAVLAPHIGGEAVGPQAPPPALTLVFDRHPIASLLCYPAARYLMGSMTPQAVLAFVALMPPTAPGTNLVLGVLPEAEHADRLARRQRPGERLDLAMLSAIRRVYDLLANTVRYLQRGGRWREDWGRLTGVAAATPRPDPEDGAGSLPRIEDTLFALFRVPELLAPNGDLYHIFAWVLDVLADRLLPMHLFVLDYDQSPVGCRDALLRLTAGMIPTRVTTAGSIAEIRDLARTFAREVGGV
Nature of the assay: Inhibitory activity against HSV-2 Thymidine Kinase (HSV-2 TK).

The target in assay [2] is T2, Thymidine kinase (Human herpesvirus 1 (strain SC16) (HHV-1) (Human herpes simplex virus1), UniProt P06479).
T2 sequence (P06479 whole entry): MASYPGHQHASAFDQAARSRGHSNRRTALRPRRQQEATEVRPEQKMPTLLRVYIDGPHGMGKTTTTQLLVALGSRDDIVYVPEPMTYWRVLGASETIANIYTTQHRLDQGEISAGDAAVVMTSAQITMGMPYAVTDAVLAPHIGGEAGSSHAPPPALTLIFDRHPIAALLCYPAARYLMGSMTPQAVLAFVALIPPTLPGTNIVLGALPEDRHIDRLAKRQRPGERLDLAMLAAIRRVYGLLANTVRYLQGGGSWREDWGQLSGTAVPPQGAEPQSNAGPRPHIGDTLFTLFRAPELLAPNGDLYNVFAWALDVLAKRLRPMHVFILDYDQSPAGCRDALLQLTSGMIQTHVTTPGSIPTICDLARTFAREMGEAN
Nature of the assay: Inhibitory activity against HSV-1 Thymidine Kinase (HSV-1 TK).

In the case of `CCc1cn([C@H]2C[C@H](O)[C@@H](CNC(=O)C3c4ccccc4-c4ccccc43)O2)c(=O)[nH]c1=O`, the IC50 on Thymidine kinase [1] was 5.2 nM; against Thymidine kinase [2], 28 nM.

As for `CCc1cn([C@H]2C[C@H](O)[C@@H](CNC(=O)C3c4ccccc4Sc4ccccc43)O2)c(=O)[nH]c1=O`, the IC50 on Thymidine kinase [1] stood at 1.4 nM; at Thymidine kinase [2] it was 11.5 nM.

With `CCc1cn([C@@H]2O[C@H](CNC(=O)C3c4ccccc4S(=O)(=O)c4c(Cl)cccc43)[C@@H](O)[C@@H]2F)c(=O)[nH]c1=O` (some centres undefined), the IC50 at Thymidine kinase [1] came out at 0.09 nM; on Thymidine kinase [2], 0.27 nM.

In the case of `CCc1cn([C@@H]2O[C@H](CNC(=O)C3c4ccccc4Oc4c(C)cccc43)[C@@H](O)[C@@H]2F)c(=O)[nH]c1=O` (some centres undefined), the IC50 was 0.19 nM against Thymidine kinase [1] and 1.6 nM against Thymidine kinase [2].

`CCc1cn([C@@H]2O[C@H](CNC(=O)C3c4ccccc4S(=O)(=O)c4ccccc43)[C@@H](O)[C@@H]2F)c(=O)[nH]c1=O`: the values for the IC50 at Thymidine kinase [1] and on Thymidine kinase [2] were 0.11 nM and 0.93 nM, respectively.

Take `CCc1cn([C@H]2C[C@H](O)[C@@H](CNC(=O)Cc3ccccc3Cl)O2)c(=O)[nH]c1=O`: the figures for the IC50 at Thymidine kinase [1] and against Thymidine kinase [2] were 30 nM and 100 nM, respectively.

On to `CCc1cn([C@@H]2O[C@H](CNC(=O)C3c4ccccc4Sc4c(Cl)cccc43)[C@@H](O)[C@@H]2F)c(=O)[nH]c1=O` (some centres undefined), for which the IC50 turned out to be 0.21 nM against Thymidine kinase [1] and 1.5 nM against Thymidine kinase [2].

Regarding `CCc1cn([C@H]2C[C@H](O)[C@@H](CNC(=O)C3c4ccccc4N(C)c4ccccc43)O2)c(=O)[nH]c1=O`, the figures for the IC50 against Thymidine kinase [1] and on Thymidine kinase [2] were 2.6 nM and 23 nM, respectively.

`CCc1cn([C@H]2C[C@H](O)[C@@H](CNC(=O)Cc3ccccc3F)O2)c(=O)[nH]c1=O`: the results for the IC50 at Thymidine kinase [1] and at Thymidine kinase [2] were 140 nM and 700 nM, respectively.

On to `CCc1cn([C@@H]2O[C@H](CNC(=O)C3c4cccc(C)c4Oc4c(C)cccc43)[C@@H](O)[C@@H]2F)c(=O)[nH]c1=O`, for which the IC50 is 0.43 nM at Thymidine kinase [1] and 2.2 nM at Thymidine kinase [2].

Take `CCc1cn([C@H]2C[C@H](O)[C@@H](CNC(=O)Cc3ccccc3C)O2)c(=O)[nH]c1=O`: the IC50 worked out at 60 nM against Thymidine kinase [1] and 200 nM against Thymidine kinase [2].

Turning to `CCc1cn([C@H]2C[C@H](O)[C@@H](CNC(=O)Cc3c(C)cccc3C)O2)c(=O)[nH]c1=O`, the IC50 against Thymidine kinase [1] was 8.4 nM; against Thymidine kinase [2], 40 nM.

`CCc1cn([C@H]2C[C@H](O)[C@@H](CNC(=O)c3c4ccccc4cc4ccccc34)O2)c(=O)[nH]c1=O`: the IC50 against Thymidine kinase [1] worked out at 420 nM; at Thymidine kinase [2] it was 1650 nM.

On to `CCc1cn([C@@H]2O[C@H](CNC(=O)C3c4ccccc4Oc4ccccc43)[C@@H](O)[C@@H]2F)c(=O)[nH]c1=O`, for which the IC50 came to 0.11 nM on Thymidine kinase [1] and 2.1 nM on Thymidine kinase [2].

As for `CCc1cn([C@@H]2O[C@H](CNC(=O)C3c4ccccc4Oc4c(OC)cccc43)[C@@H](O)[C@@H]2F)c(=O)[nH]c1=O` (some centres undefined), the values for the IC50 against Thymidine kinase [1] and against Thymidine kinase [2] were 0.21 nM and 1.7 nM, respectively.

Consider `CCc1cn([C@H]2C[C@H](O)[C@@H](CNC(=O)C3c4ccccc4S(=O)(=O)c4ccccc43)O2)c(=O)[nH]c1=O`, for which the IC50 against Thymidine kinase [1] was 0.13 nM; on Thymidine kinase [2] it was 0.95 nM.

`CCc1cn([C@@H]2O[C@H](CNC(=O)[C@H](C)Oc3cc(OC)c(Cl)cc3Cl)[C@@H](O)[C@@H]2F)c(=O)[nH]c1=O`: the IC50 against Thymidine kinase [1] turned out to be 0.19 nM; against Thymidine kinase [2], 1.8 nM.

Regarding `CCc1cn([C@@H]2O[C@H](CNC(=O)C3c4cccc(Cl)c4Oc4c(Cl)cccc43)[C@@H](O)[C@@H]2F)c(=O)[nH]c1=O`, the IC50 on Thymidine kinase [1] came out at 0.1 nM; on Thymidine kinase [2], 0.3 nM.

For the compound `CCc1cn([C@H]2C[C@H](O)[C@@H](CNC(=O)Cc3ccccc3)O2)c(=O)[nH]c1=O`, the IC50 came to 300 nM at Thymidine kinase [1] and 1000 nM against Thymidine kinase [2].

In the case of `CCc1cn([C@@H]2O[C@H](CNC(=O)C3c4ccccc4Oc4c(-c5ccccc5)cccc43)[C@@H](O)[C@@H]2F)c(=O)[nH]c1=O` (some centres undefined), the IC50 came out at 0.14 nM at Thymidine kinase [1] and 0.66 nM against Thymidine kinase [2].

Take `CCc1cn([C@H]2C[C@H](O)[C@@H](CNC(=O)Cc3ccccc3OC)O2)c(=O)[nH]c1=O`: the IC50 on Thymidine kinase [1] stood at 70 nM; on Thymidine kinase [2] it was 300 nM.

In the case of `CCc1cn([C@H]2C[C@H](O)[C@@H](CNC(=O)Cc3ccccc3C(F)(F)F)O2)c(=O)[nH]c1=O`, the half-inhibitory concentration (IC50) against Thymidine kinase [1] is 90 nM; at Thymidine kinase [2] it was 200 nM.

For the compound `CCc1cn([C@@H]2O[C@H](CNC(=O)C3c4ccccc4C(C(F)(F)F)(C(F)(F)F)c4ccccc43)[C@@H](O)[C@@H]2F)c(=O)[nH]c1=O`, the IC50 stood at 0.11 nM at Thymidine kinase [1] and 0.19 nM at Thymidine kinase [2].

As for `CCc1cn([C@@H]2O[C@H](CNC(=O)C3c4ccccc4Sc4ccccc43)[C@@H](O)[C@@H]2F)c(=O)[nH]c1=O`, the IC50 against Thymidine kinase [1] came out at 0.7 nM; on Thymidine kinase [2] it was 8.5 nM.

In the case of `CCc1cn([C@H]2C[C@H](O)[C@@H](CNC(=O)C3c4ccccc4CCc4ccccc43)O2)c(=O)[nH]c1=O`, the results for the IC50 against Thymidine kinase [1] and at Thymidine kinase [2] were 44 nM and 260 nM, respectively.

Turning to `CCc1cn([C@@H]2O[C@H](CNC(=O)C3c4ccccc4C(C)(C)c4ccccc43)[C@@H](O)[C@@H]2F)c(=O)[nH]c1=O`, the IC50 against Thymidine kinase [1] was found to be 0.28 nM; against Thymidine kinase [2], 1.5 nM.

Consider `CCc1cn([C@H]2C[C@H](O)[C@@H](CNC(=O)Cc3ccccc3-c3ccccc3)O2)c(=O)[nH]c1=O`, for which the values for the IC50 against Thymidine kinase [1] and against Thymidine kinase [2] were 90 nM and 240 nM, respectively.

Take `CCc1cn([C@@H]2O[C@H](CNC(=O)C3c4ccccc4Oc4c(Cl)cccc43)[C@@H](O)[C@@H]2F)c(=O)[nH]c1=O` (some centres undefined): the half-inhibitory concentration (IC50) is 0.14 nM on Thymidine kinase [1] and 0.85 nM against Thymidine kinase [2].

`CCc1cn([C@@H]2O[C@H](CNC(=O)C3c4ccccc4Oc4c3cccc4C(F)(F)F)[C@@H](O)[C@@H]2F)c(=O)[nH]c1=O` (some centres undefined): the IC50 on Thymidine kinase [1] stood at 0.14 nM; against Thymidine kinase [2], 1 nM.

With `CCc1cn([C@H]2C[C@H](O)[C@@H](CNC(=O)C3c4ccccc4Cc4ccccc43)O2)c(=O)[nH]c1=O`, the results for the IC50 against Thymidine kinase [1] and on Thymidine kinase [2] were 1.2 nM and 7 nM, respectively.

Consider `CCc1cn([C@H]2C[C@H](O)[C@@H](CNC(=O)C3c4ccccc4Oc4ccccc43)O2)c(=O)[nH]c1=O`, for which the IC50 was found to be 0.13 nM against Thymidine kinase [1] and 2.9 nM against Thymidine kinase [2].

On to `CCc1cn([C@H]2C[C@H](O)[C@@H](CNC(=O)Cc3c(Cl)cccc3Cl)O2)c(=O)[nH]c1=O`, for which the values for the IC50 on Thymidine kinase [1] and at Thymidine kinase [2] were 3.3 nM and 1 nM, respectively.
